Experimental data reported in PubChem BioAssay AID330 (DTP/NCI, 2004).
Values joined by “and” are separate entries in the source; they are usually repeats but may differ in a detail not shown here. Identical values can stand only once. Toxic doses and inconclusive results are not listed.

Test system: P388 leukemia ip, CD2F1 mice, survival T/C
Experiment: NCI In Vivo Anticancer Drug Screen. Data for tumor model P388 Leukemia (intraperitoneal) in CD2F1 (CDF1) mice
Details: endpoint: median survival time, higher = longer survival
Summary of the method: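 Mice carrying the transplanted tumor received test compound or vehicle. Survival was recorded in each group, and the value is the treated-group measurement divided by that of the vehicle-treated control group.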

[1] = dose: 50.0 mg/kg/injection, schedule: Q01DX005 (ip), vehicle: saline with Tween-80
[2] = dose: 100.0 mg/kg/injection, schedule: Q01DX005 (ip), vehicle: saline with Tween-80
[3] = dose: 200.0 mg/kg/injection, schedule: Q01DX005 (ip), vehicle: saline with Tween-80
[4] = dose: 60.0 mg/kg/injection, schedule: Q01DX005 (ip), vehicle: saline with Tween-80
[5] = dose: 120.0 mg/kg/injection, schedule: Q01DX005 (ip), vehicle: saline with Tween-80
[6] = dose: 240.0 mg/kg/injection, schedule: Q01DX005 (ip), vehicle: saline with Tween-80
[7] = dose: 50.0 mg/kg/injection, schedule: Q01DX009 (ip), vehicle: saline with Tween-80
[8] = dose: 100.0 mg/kg/injection, schedule: Q01DX009 (ip), vehicle: saline with Tween-80
[9] = dose: 200.0 mg/kg/injection, schedule: Q01DX009 (ip), vehicle: saline with Tween-80
[10] = dose: 50.0 mg/kg/injection, schedule: Q01DX005 (ip), vehicle: Klucel (hydroxypropylcellulose) (HPC)
[11] = dose: 100.0 mg/kg/injection, schedule: Q01DX005 (ip), vehicle: Klucel (hydroxypropylcellulose) (HPC)
[12] = dose: 200.0 mg/kg/injection, schedule: Q01DX005 (ip), vehicle: Klucel (hydroxypropylcellulose) (HPC)

How did the T/C (dose: 12.5 mg/kg/injection, schedule: Q01DX005 (ip), vehicle: saline) turn out when `COc1cc(C(=O)C(CN(C)C)CN(C)C)cc(OC)c1OC` was run?
Its T/C is 101 % of control.

And the T/C (dose: 25.0 mg/kg/injection, schedule: Q01DX005 (ip), vehicle: saline)?
Its T/C is 100 % of control.

And the T/C (dose: 50.0 mg/kg/injection, schedule: Q01DX005 (ip), vehicle: saline)?
The T/C was 107 % of control and 114 % of control.

What does the source list for `COc1cccc2c1C(=O)C(C1CO1)=CC2=O` (stereo not drawn)?
T/C (dose: 12.5 mg/kg/injection, schedule: Q01DX001 (ip), vehicle: Klucel (hydroxypropylcellulose) (HPC)): 88 % of control; T/C (dose: 25.0 mg/kg/injection, schedule: Q01DX001 (ip), vehicle: Klucel (hydroxypropylcellulose) (HPC)): 95 % of control

`CC12C(=O)OC(=O)C1CCc1c2ccc2ccccc12` (stereo not drawn) was tested. Which T/C [1] did it give?
The T/C was 107 % of control.

What about the T/C [2] of the same molecule?
Its T/C is 110 % of control.

And the T/C [3]?
The T/C was 107 % of control.

How did the T/C (dose: 30.0 mg/kg/injection, schedule: Q01DX005 (ip), vehicle: saline) turn out when `CC1(C)CC(NCCCN(CCO)CCO)CC(C)(C)N1O` was run?
The T/C was 96 % of control.

And the T/C (dose: 60.0 mg/kg/injection, schedule: Q01DX005 (ip), vehicle: saline)?
Its T/C is 99 % of control.

What about the T/C (dose: 120.0 mg/kg/injection, schedule: Q01DX005 (ip), vehicle: saline) of the same molecule?
The T/C was 96 % of control.

With `CCOC(=O)c1cn(CC)c2cc(-n3cccc3)ccc2c1=O` as the molecule, how does the T/C [4] read?
Its T/C is 93 % of control.

What about the T/C [5] of the same molecule?
The T/C was 98 % of control.

And the T/C [6]?
The T/C was 92 % of control.

Which results are given for `CN(C)c1ccc(C2(c3ccc(N(C)C)cc3)NNC(=O)c3ccccc32)cc1`?
T/C [1]: 93 % of control; T/C [2]: 90 % of control; T/C [3]: 86 % of control

What does the source list for `Cc1cc(C(C)CC(=O)O)c(C)c(C)c1C` (stereo not drawn)?
T/C [7]: 96 % of control; T/C [8]: 93 % of control; T/C [9]: 108 % of control

With `CONS(=O)(=O)c1ccccc1C(=O)OC` as the molecule, how does the T/C [10] read?
Its T/C is 105 % of control.

What about the T/C [11] of the same molecule?
The T/C was 100 % of control.

What about the T/C [12] of the same molecule?
Its T/C is 103 % of control.

Which results are given for `CCOc1cc2c(cc1Cc1cc(OC)c(OC)c(OC)c1)OCO2`?
T/C (dose: 60.0 mg/kg/injection, schedule: Q01DX005 (ip), vehicle: Klucel (hydroxypropylcellulose) (HPC)): 91 % of control; T/C (dose: 120.0 mg/kg/injection, schedule: Q01DX005 (ip), vehicle: Klucel (hydroxypropylcellulose) (HPC)): 98 % of control; T/C (dose: 240.0 mg/kg/injection, schedule: Q01DX005 (ip), vehicle: Klucel (hydroxypropylcellulose) (HPC)): 86 % of control

Which T/C [8] does the source give for `N#CO` here?
The T/C was 90 % of control.

Which results are given for `C/C(=C1/c2ccccc2-c2n[nH]c(C)c21)S(=O)(=O)O`?
T/C [8]: 109 % of control; T/C [9]: 109 % of control; T/C (dose: 400.0 mg/kg/injection, schedule: Q01DX009 (ip), vehicle: saline with Tween-80): 100 % of control

For `O=C(O)c1cc(C(=O)CC(=O)c2cc(C(=O)O)c(O)c3ccccc23)c2ccccc2c1O`, which T/C [7] is on record?
Its T/C is 94 % of control.

And the T/C [8]?
The T/C was 88 % of control.

`C[C@H]1C(=O)CCC2[C@]3(C)CC4OC(=O)C5(CC[C@@]6(C)CCC(C)(C)CC6C45C)C3CC[C@@]21C` (stereo partly drawn) was tested. Which T/C (dose: 8.25 mg/kg/injection, schedule: Q01DX005 (ip), vehicle: Klucel (hydroxypropylcellulose) (HPC)) did it give?
The T/C was 93 % of control.

Which T/C (dose: 25.0 mg/kg/injection, schedule: Q01DX005 (ip), vehicle: Klucel (hydroxypropylcellulose) (HPC)) does the source give for `CCCCC(CC)C(=O)OCCNC(=O)C(C)OC(=O)C(CC)CCCC` (stereo not drawn) here?
Its T/C is 105 % of control.

What about the T/C [10] of the same molecule?
Its T/C is 102 % of control.

And the T/C [11]?
Its T/C is 95 % of control.

And the T/C [12]?
The T/C was 105 % of control.

Which T/C (dose: 50.0 mg/kg/injection, schedule: Q01DX009 (ip), vehicle: Klucel (hydroxypropylcellulose) (HPC)) does the source give for `CC(C(=O)O)c1ccc2sc(-c3ccccc3)nc2c1` (stereo not drawn) here?
The T/C was 102 % of control.

And the T/C (dose: 100.0 mg/kg/injection, schedule: Q01DX009 (ip), vehicle: Klucel (hydroxypropylcellulose) (HPC))?
Its T/C is 100 % of control.

And the T/C (dose: 200.0 mg/kg/injection, schedule: Q01DX009 (ip), vehicle: Klucel (hydroxypropylcellulose) (HPC))?
Its T/C is 98 % of control.

For `CCC(O)(c1ccccc1)c1cnc(C)n1Cc1ccccc1` (stereo not drawn), which T/C [4] is on record?
Its T/C is 91 % of control.

And the T/C [5]?
Its T/C is 88 % of control.

What about the T/C [6] of the same molecule?
The T/C was 89 % of control.
